Results as given in US20220177511A1, “SERIES OF HALOGENATED TETRACYCLIC TRITERPENE DERIVATIVES AND THEIR PREPARATION AND APPLICATION” (SHANGHAI KING-X BIOTECH CO., LTD, priority 2019, published 2022).
Converted amounts (≈) assume the structure as drawn. Where two headings read alike, the source gives them in different places.

How the values were obtained:
[1] = test system: chronic heart failure mice; experiment: Pharmacodynamic comparison of LCZ696 and compound 2 in chronic heart failure mice (echocardiography); type: in vivo; conditions: for CO / EF / FS / HR: Compound 2 group; for EF, day 28 vs day 0 (words) / short-axis shortening rate (FS %), day 28 vs day 0 (words): chronic heart failure mice, p<0.0005 (FIG. 8)
From the text: With EF<50%, chronic heart failure mice were selected.
The mice were detected by cardiac ultrasound after 28 days of administration.

[2] = Solubility test in water and FaSSIF; type: physicochemical; conditions: thermodynamic from solid, 37° C., up to 24 hours, read-out: Solubility
[3] = Plasma pharmacokinetics after single intragastric administration in rats; type: in vivo, SD rat; conditions: for AUC0-t / AUC(0-inf) / CL/F / Cmax / Tmax / half-life / MRT inf / Vd/F: single gavage 10 mg/kg, Mean ± SD; for bioavailability: SD, single gavage 10 mg/kg vs intravenous 2 mg/kg; for MRT inf: read-out: MRT0-∞; for Vd/F: read-out: Vz/F
Procedure: Strain: SD rat; Gender: half male and female. Weight: about 200-250 g. Source: Shanghai Slac Laboratory Animal Co., Ltd. Laboratory Animal Production License No.: SOCK (Shanghai) 2017-0005. Laboratory Animal Use License Certificate number: SYXK (Shanghai) 2014-0018. Breeding: constant temperature purification and ventilation animal room, 20-26° C., free food and water, humidity 40-70%, light for 12 h.
Route A: single oral administration. Volume: calculated according to 10 mL/kg body weight. Preparation: an appropriate amount of compound 2 is added to a small amount of 0.5% CMC-Na and grinded, and another portion of 0.5% CMC-Na was added to form a suspension.
12 SD rats were divided into 2 groups, 6 rats in each group, […]. Fasting for 12 h before administration, free drinking water. The doses of 10 mg/kg were administered as a single gavage, and the doses of 2 mg/kg were administered as a single intravenous injection. About 100 μL orbital blood was collected before administration, 3 min, 10 min, 20 min, 30 min, 1 h, 2 h, 3 h, 4 h, 6 h, 8 h, 11 h, and 24 h after administration. For intravenous administration, orbital blood was collected before administration, 3 min, 8 min, 15 min, 30 min, 1 h, 2 h, 3 h, 4 h, 6 h, 8 h, 11 h, 24 h after injection. The blood was anticoagulated with 1% heparin, centrifuged at 8000 rpm for 4 min, and the plasma was separated. Store at −20° C. High concentration samples were diluted with blank plasma. 2.1.4 Determination method of plasma samples 2.1.4.1 Instrument (LC-MS/MS)
Liquid chromatography system: Ultimate3000 liquid chromatography system (including Ultimate3000 ternary infusion pump, Ultimate3000 column oven, Ultimate3000 autosampler and Ultimate3000 vacuum degasser), Dionex Corporation. MS/MS system: 4000 Q-Trap tandem mass spectrometer with electrospray ionization source (ESI source), AB Company
Column: Athena C18-WP 100A (2.1×50 mm, 5 μm); Injection volume: 10 μL; Mobile phase: A: acetonitrile; C: 0.05% ammonia, gradient elution (see table below); Flow rate: 0.3 mL/min
The ion source is electrospray ionization source (ESI), the drying gas (N2) temperature is 500° C., the electrospray voltage is −4500 V, the detection method is negative ion detection, the scanning method is the […] (MRM) method and the scanning time is 0.15 s. The mass spectrometry parameters are as follows:
(§1) 50 μL of rat whole blood was added with 2.5 μL of internal standard working solution (250 ng/mL tolbutamide). 150 μL of acetonitrile was used to precipitate the proteins. The sample was centrifuged at 13,000 rpm and 4° C. for 5 min. The upper organic phase was taken and filtered with a 0.22 μM microporous membrane, which was then analyzed by LC-MS/MS. […]

[4] = Stability test of compound 2 in fresh rat whole blood; type: in vitro ADME; design: half-life: dose or concentration left out as unconfirmed
Procedure: Preparation of the tested product: Compound 2 was dissolved with an appropriate amount of dimethyl sulfoxide (DMSO) to obtain a 400 μM solution.
1) Fresh rat whole blood is added to the EP tube and shaken gently to mix.
2) Pre-incubate the EP tube in a water bath at 37° C. for 5 minutes.
3) Add Compound 2 and incubate at 37° C.
4) Every 50 μL of sample was taken from the sample tube to the stop tube (containing 5 μL internal standard, 5 μg/mL tolbutamide) at 0, 3 min, 6 min, 15 min, 30 min, and 60 min. 150 μL of acetonitrile was added and shaked to stop reaction, which was incubated in PBS system for 0 and 60 min.
5) Centrifuge for 5 min at 4° C. (13000 r/min), aspirate the supernatant, and analyze the sample.
as §1, with “5” for “2.5”, “(5 μg/mL” for “(250 ng/mL”
The In residual rate of compound 2 in the incubation system was plotted against the incubation time, and the slope k was obtained by linear regression. T1/2 (min) was calculated according to the formula (T1/2=−0.693/k).

[5] = chronic heart failure mice (FIG. 9)
[6] = both sexes, rat, plasma, po, all rats (♂ and ♀)
[7] = female, rat, plasma, po, rats ♀

In the case of `CC(C)(O)[C@@H]1CC[C@](C)([C@H]2[C@@H](O)C[C@@]3(C)[C@@H]4C[C@H](O)[C@H]5C(C)(C)C(F)(F)CC[C@@]56C[C@@]46CC[C@]23C)O1` [Compound 2, (2aR,3R,4S,5aS,5bS,7S,7aR,11aR,12aS)-9,9-difluoro-3-((2R,5S)-5-(2-hydroxypropan-2-yl)-2-methyltetrahydrofuran-2-yl)-2a,5a,8,8-tetramethyltetradecahydro-1H,12H-cyclopenta[a]cyclopropa[e]phenanthrene-4,7-diol], the CO ([1]; Day 0) is reported as 33.39 ± 2.45 mL/min, the EF ([1]; Day 0) is reported as 25.04 ± 1.87% and the FS ([1]; Day 0) is reported as 9.65 ± 0.84 %. For the same molecule, the HR ([1]; Day 0) was 564.5 ± 14.96 times/min, the CO ([1]; Day 28) was 48.09 ± 3.69 mL/min and the EF ([1]; Day 28) was 43.83 ± 3.62 %. For the same molecule, the FS ([1]; Day 28) was 18.86 ± 2.17%, the HR ([1]; Day 28) was 579.3 ± 12.44 times/min and the “Cardiac output per minute (CO), day 28 vs day 0 (words)” value [1, 5] was “significantly improved”. For the same molecule, the “Heart rate (HR), day 28 vs day 0” value [1, 5] was “no significant change”, the “Cardiac output per minute (CO), day 28 vs day 0 (words)” value ([1]; chronic heart failure mice (FIG. 9), listed as compound 2) was “increased significantly” and the “EF, day 28 vs day 0 (words)” value [1] was “significantly improved”. The “short-axis shortening rate (FS %), day 28 vs day 0 (words)” value [1] was “significantly improved”, the “EF, day 28 vs day 0 (words)” value ([1]; listed as compound 2) was “significantly increased” and the “short-axis shortening rate (FS %), day 28 vs day 0 (words)” value ([1]; listed as compound 2) was “more significant”. For the same molecule, the “left ventricular ejection fraction EF % increased by” value ([1]; compound 2 group, after 28 days of administration) was 75.04%, the Solubility ([2]; FaSSIF (pH 6.5)) was 15 µg/mL (≈ 29.4 µM) and the Solubility ([2]; Water) was 2 µg/mL (≈ 3.92 µM). For the same molecule, the AUC0-t ([3]; all rats (♂ and ♀), 10 mg/kg) was 1916 ng·h/mL, the bioavailability ([3]; both sexes, rat, plasma, po, all rats (♂ and ♀), read-out: F (mean absolute bioavailability)) was 22% and the AUC(0-inf) [3, 6] was 2450 ± 3070 ng·h/mL. For the same molecule, the CL/F [3, 6] was 140 mL/min/kg, the Cmax [3, 6] was 323 ng/mL and the Tmax [3, 6] was 2.17 h. The half-life [3, 6] was 2.89 h, the AUC0-t ([3]; both sexes, rat, plasma, po, all rats (♂ and ♀), read-out: AUC0-t) was 1920 ng·h/mL and the MRT inf [3, 6] was 4.4 ± 1.28 h. It also gave a Vd/F [3, 6] of 27.9 ± 19 L/kg, a bioavailability ([3]; female, rat, plasma, po, rats ♀, read-out: F (absolute bioavailability)) of 28.4% and an AUC(0-inf) [3, 7] of 4040 ± 3990 ng·h/mL. For the same molecule, the CL/F [3, 7] was 71.2 mL/min/kg, the Cmax [3, 7] was 459 ± 277 ng/mL and the Tmax [3, 7] was 2.33 ± 0.58 h. The half-life [3, 7] was 3.64 ± 2.54 h, the AUC0-t ([3]; female, rat, plasma, po, rats ♀, read-out: AUC0-t) was 3000 ± 2430 ng·h/mL and the MRT inf [3, 7] was 5.01 ± 1.71 h. The Vd/F [3, 7] was 15.8 ± 9.24 L/kg, the bioavailability ([3]; male, rat, plasma, po, rats ♂, read-out: F (absolute bioavailability)) was 15.6% and the AUC(0-inf) ([3]; male, rat, plasma, po, rats ♂) was 859 ± 297 ng·h/mL. The CL/F ([3]; male, rat, plasma, po, rats ♂) was 208 mL/min/kg, the Cmax ([3]; male, rat, plasma, po, rats ♂) was 187 ± 37 ng/mL and the Tmax ([3]; male, rat, plasma, po, rats ♂) was 2 ± 1 h. It also gave a half-life ([3]; male, rat, plasma, po, rats ♂) of 2.14 ± 0.64 h, an AUC0-t ([3]; male, rat, plasma, po, rats ♂, read-out: AUC0-t) of 831 ng·h/mL and an MRT inf ([3]; male, rat, plasma, po, rats ♂) of 3.78 ± 0.24 h. For the same molecule, the Vd/F ([3]; male, rat, plasma, po, rats ♂) was 40 ± 19.5 L/kg, the half-life ([4]; fresh rat whole blood, rat whole blood, 37° C., 0-60 min, read-out: In vitro T1/2) was 10.7 h and the “stability in rat whole blood” value ([4]; incubation 3, 6, 15, 30 and 60 min) was “relatively stable”.
